Results: patent US20260139007A1, “EPHA4 ANTAGONISTS AND USES THEREOF” (SANFORD BURNHAM PREBYS MEDICAL DISCOVERY INSTITUTE, priority 2023, published 2026)
Values joined by “and” are separate entries in the source; they are usually repeats but may differ in a detail not shown here. Identical values can stand only once. Like-named read-outs stand apart in the source and are kept apart here. Bridge positions count the residues as written; N and C are the ends. Square brackets hold non-standard residues; d marks the D form. Peptide text beside a SMILES is read from it. * marks the point of attachment. Octanoyl = CCCCCCCC(=O)*; βAla = NCCC(=O)O

Assays:
[1] = In vivo half-life: active compound remaining in mouse blood, deduced from apparent IC50 of plasma in the EphA4-ephrinA5 ELISA; details: mouse; for blood concentration: 0.8 mg/mouse
Description: To examine the persistence of compounds in the blood circulation, an approach was devised to determine the concentration of compound in mouse blood by taking advantage of the ELISA measuring inhibition of EphA4-ephrinA5 interaction.
Lipidated compounds dissolved in DMSO were diluted in […] PBS (to a 5% final DMSO concentration) or in […] PBS supplemented with 20 or 40 mg/mL BSA or 6.5 mM methyl-β-cyclodextrin for intravenous or intraperitoneal injection. Neutral pH of the compound solution was verified before injection. PEGylated compounds were dissolved in […] PBS before intraperitoneal injection. Peptides were sterile filtered before administration. Blood from each mouse was collected at 3 different time points after compound injection, the first 2 times by retro-orbital bleeding and the third time by terminal cardiac bleeding under deep anesthesia. Red blood cells were removed by centrifugation from blood treated with heparin and the resulting plasma was frozen in aliquots.
For each time point, a dose-response curves by measuring inhibition of EphA4-ephrinA5 binding at different plasma dilutions was obtained.

EphA4 Fc [2] = test: ELISA measuring inhibition of ephrin-A5 AP binding to immobilized EphA4 Fc; design: species or system human or mouse
EphA4 Fc [3] = test: ELISA inhibition of ephrin-A5 AP binding to EphA4 Fc in the presence of HSA, BSA or methyl-β-cyclodextrin; details: for IC50: read-out: IC50 ± SE (n) by ELISA with HSA or BSA; for effect of HSA on potency: presence vs absence of 40 mg/mL HSA, tested in parallel
Description: To determine whether albumin binding to the lipidated compounds affects their ability to bind EphA4, the effects of delipidated human serum albumin (HSA) on the inhibitory potency of some of the compounds were examined.

[4] = Solubility of lipidated compounds; format: physicochemical
EphA4 = molecular target: T1, EphA4 (Homo sapiens, UniProt P54764); test: EphA4 Y596 phosphorylation (activation) in cells stimulated with ephrinA5-Fc; format: cell-based; details: EphA4 tyrosine phosphorylation in cells stimulated with ephrin-A5
T1 construct: expressed in transfected cells; host or cells: HEK-EphA4 cells (immortalized cells stably transfected)
T1 sequence (P54764 20-986, species assumed): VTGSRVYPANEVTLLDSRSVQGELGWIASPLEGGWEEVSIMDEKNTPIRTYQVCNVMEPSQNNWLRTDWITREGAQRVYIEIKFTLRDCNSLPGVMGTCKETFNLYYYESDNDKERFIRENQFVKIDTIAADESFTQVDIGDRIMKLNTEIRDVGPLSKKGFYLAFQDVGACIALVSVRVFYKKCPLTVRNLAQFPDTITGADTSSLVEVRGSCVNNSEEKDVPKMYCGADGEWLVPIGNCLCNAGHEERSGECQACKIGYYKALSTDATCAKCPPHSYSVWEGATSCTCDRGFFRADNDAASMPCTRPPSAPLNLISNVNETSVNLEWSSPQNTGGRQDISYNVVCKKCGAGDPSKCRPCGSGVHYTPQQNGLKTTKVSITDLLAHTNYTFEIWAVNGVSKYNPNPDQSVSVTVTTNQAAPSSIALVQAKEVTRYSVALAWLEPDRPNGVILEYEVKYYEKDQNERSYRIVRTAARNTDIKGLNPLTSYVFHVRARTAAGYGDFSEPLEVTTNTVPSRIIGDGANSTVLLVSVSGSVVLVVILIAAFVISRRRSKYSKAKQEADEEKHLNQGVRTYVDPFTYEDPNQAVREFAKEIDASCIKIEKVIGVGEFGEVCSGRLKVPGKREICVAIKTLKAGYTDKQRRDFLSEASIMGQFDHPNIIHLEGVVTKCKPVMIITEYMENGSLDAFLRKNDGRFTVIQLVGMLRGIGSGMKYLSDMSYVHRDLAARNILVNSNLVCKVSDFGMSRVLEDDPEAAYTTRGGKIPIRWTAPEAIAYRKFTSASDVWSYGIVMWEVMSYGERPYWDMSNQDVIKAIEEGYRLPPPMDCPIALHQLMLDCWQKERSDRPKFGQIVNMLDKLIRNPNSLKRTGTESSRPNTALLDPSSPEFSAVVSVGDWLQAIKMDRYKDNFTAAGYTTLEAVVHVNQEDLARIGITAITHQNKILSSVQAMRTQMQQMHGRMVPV
Description: Immortalized cells stably transfected to express FLAG-tagged EphA4 were cultured at 37° C. in Dulbecco's Modified Eagle Medium (DMEM; #10-013-CV, Corning/Thermo Fisher Scientific) containing 10% fetal bovine serum (FBS) with 1% antibiotic-antimycotic solution (#30-004-Cl, Corning). To assess inhibition of EphA4 activation by compounds in cells, the cells were plated in 48-well plates.
For ELISAs, high binding capacity polystyrene 96-well plates were coated overnight at 4° C. with 1 μg/mL goat anti-FLAG antibody (#F3165, Sigma-Aldrich) in 50 μL/well borate buffer (0.1 M boric acid, 0.1 M Na borate, pH 8.7). […] OD450 was then measured.

[5] = in vivo, iv, IV (intravenous administration), read-out: In vivo half-life (converted)
[6] = inhibition of ephrin-A5 AP binding to EphA4 Fc, averages of all experiments, read-out: IC50 ± SE (n) by ELISA
[7] = in vivo, ip, IP (intraperitoneal administration), read-out: In vivo half-life (converted)
[8] = ELISA inhibition of EphA4-ephrin-A5 interaction
[9] = ELISA inhibition of EphA4-ephrin-A5 interaction, read-out: IC50 (approximate)

half-life [1, 5] | IC50 (EphA4 Fc [2]; [6]) | IC50 (EphA4 Fc [3]; 40 mg/mL delipidated HSA) | half-life [1, 7] | Compound | potency compared with APY-d3 (EphA4 Fc [2]; [8]) | IC50 (EphA4 Fc [2]; [9]) | effect of HSA on potency (EphA4 Fc [3]) | other results
< 10 min | 26 ± 5 nM | 75 ± 24 nM |  | CCCCCCCC(=O)NCCCC[C@@H]1NC(=O)[C@H](Cc2ccc(O)cc2)NC(=O)[C@H](C(C)C)NC(=O)[C@@H](NC(=O)[C@H](Cc2ccc(O)cc2)NC(=O)[C@@H]2CCCN2C(=O)CCN)CSSC[C@@H](C(=O)NCC(=O)NCC(=O)N[C@@H](CCCNC(=N)N)C(=O)NCC(N)=O)NC(=O)[C@H](CO)NC(=O)[C@H](Cc2c[nH]c3ccccc23)NC(=O)[C@H](CO)NC(=O)CCNC1=O [Compound 5] (H-[βAla]PYCVYK(Octanoyl)[βAla]SWSCGGRG-NH2; disulfide 4-12) |  |  |  | % of compound remaining in the blood ([1]; 10 min after intravenous injection, in PBS with 5% DMSO): 5%
30 to 42 min | 240 ± 30 nM | 920 ± 180 nM |  | CCCCCCCCCCCC(=O)NCCCC[C@H](NC(=O)CNC(=O)CNC(=O)[C@@H]1CSSC[C@H](NC(=O)[C@H](Cc2ccc(O)cc2)NC(=O)[C@@H]2CCCN2C(=O)CCN)C(=O)N[C@@H](C(C)C)C(=O)N[C@@H](Cc2ccc(O)cc2)C(=O)N[C@@H](CCCNC(=N)N)C(=O)NCCC(=O)N[C@@H](CO)C(=O)N[C@@H](Cc2c[nH]c3ccccc23)C(=O)N[C@@H](CO)C(=O)N1)C(=O)NCC(N)=O [Compound 12] |  |  |  | In vivo half-life ([1]; IV (intravenous administration)): ~30 min
 | 77 ± 9 nM | 1370 nM | ~120 min | CCCCCCCCCCCCCC(=O)N[C@@H](CCC(=O)N[C@@H](CCC(=O)NCCCC[C@H](NC(=O)CNC(=O)CNC(=O)[C@@H]1CSSC[C@H](NC(=O)[C@H](Cc2ccc(O)cc2)NC(=O)[C@@H]2CCCN2C(=O)CCN)C(=O)N[C@@H](C(C)C)C(=O)N[C@@H](Cc2ccc(O)cc2)C(=O)N[C@@H](CCCNC(=N)N)C(=O)NCCC(=O)N[C@@H](CO)C(=O)N[C@@H](Cc2c[nH]c3ccccc23)C(=O)N[C@@H](CO)C(=O)N1)C(=O)NCC(N)=O)C(=O)O)C(=O)O [Compound 16] |  | ~80 nM | dramatically decreased | decrease in potency compared to compound 15 (EphA4 Fc [2]; C14 myristoyl vs C12 lipid, γGluγGlu spacer): 2-3 fold; effect of methyl-β-cyclodextrin on inhibitory potency (EphA4 Fc [3]; 6.5 mM methyl-β-cyclodextrin vs buffer): does not affect the inhibitory potency
 | 18 ± 4 nM |  | ~40 min | CC[C@H](C)[C@H](NC(=O)[C@H](CC(C)C)NC(=O)[C@H](CCCNC(=N)N)NC(=O)[C@@H]1CSSC[C@H](NC(=O)[C@H](Cc2ccc(O)cc2)NC(=O)[C@@H]2CCCN2C(=O)CCN)C(=O)N[C@@H](C(C)C)C(=O)N[C@@H](Cc2ccc(O)cc2)C(=O)N[C@@H](CCCNC(=N)N)C(=O)NCCC(=O)N[C@@H](CO)C(=O)N[C@@H](Cc2c[nH]c3ccccc23)C(=O)N[C@@H](CO)C(=O)N1)C(=O)N[C@@H](CCC(=O)O)C(=O)N[C@@H](CC(=O)O)C(=O)N[C@H](C(=O)N[C@H]1CSSC[C@@H](C(=O)N[C@@H](CC(C)C)C(=O)N[C@@H](Cc2c[nH]c3ccccc23)C(=O)N[C@@H](CCC(=O)O)C(=O)N[C@@H](CC(=O)O)C(=O)N[C@@H](CC(=O)O)C(N)=O)NC(=O)CNC(=O)[C@H](Cc2c[nH]c3ccccc23)NC(=O)[C@H](CCCNC(=N)N)NC(=O)[C@@H]2CCCN2C(=O)[C@H](CC(C)C)NC1=O)[C@@H](C)CC [Compound 21] (H-[βAla]PYCVYR[βAla]SWSCRLIEDICLPRWGCLWEDD-NH2; disulfide 4-12, 19-25) | as potent as APY-d3 |  |  | decrease in potency in the presence of bovine serum albumin (EphA4 Fc [3]; 20 mg/mL bovine serum albumin): ~8 fold; IC50 (EphA4 Fc [3]; 20 mg/ml BSA): 130 ± 10 nM
 |  |  |  | [Cyc (4,12)] H2N-(βA)PYCVYR(βA)SWSC(Ahx)(Ahx)(Ahx)(Pra/mPEG30-triazole)-OH (XPYCVYRXSWSCXXX; non-natural residues; cyclised or stapled) [APY-d3-PEG4] |  |  |  | inhibitory potency lower than that of APY-d3 (EphA4): 2-3 fold; t1/2 in mouse circulation ([1]; in vivo): ~660 min; blood concentration ([1]; in vivo, ip): ~9000 nM; blood concentration ([1]; in vivo, ip, 20 h): ~3000 nM; blood concentration ([1]; in vivo, ip, 48 h): ~400 nM

Compound | half-life [1, 5] | IC50 (EphA4 Fc [2]; [6]) | IC50 (EphA4 Fc [3]; 40 mg/mL delipidated HSA) | half-life [1, 7] | potency compared with APY-d3 (EphA4 Fc [2]; [8]) | IC50 (EphA4 Fc [2]; [9]) | effect of HSA on potency (EphA4 Fc [3]) | other results
CCCCCCCCCCCC(=O)N[C@@H](CCC(=O)N[C@@H](CCC(=O)NCCCC[C@H](NC(=O)CNC(=O)CNC(=O)[C@@H]1CSSC[C@H](NC(=O)[C@H](Cc2ccc(O)cc2)NC(=O)[C@@H]2CCCN2C(=O)CCN)C(=O)N[C@@H](C(C)C)C(=O)N[C@@H](Cc2ccc(O)cc2)C(=O)N[C@@H](CCCNC(=N)N)C(=O)NCCC(=O)N[C@@H](CO)C(=O)N[C@@H](Cc2c[nH]c3ccccc23)C(=O)N[C@@H](CO)C(=O)N1)C(=O)NCC(N)=O)C(=O)O)C(=O)O [Compound 15] |  |  |  | 30 to 60 min | comparable to APY-d3 | ~50 nM and ~30 nM | dramatically decreased | half-life ([1]; in vivo, read-out: t1/2 in mouse circulation): ~40 min; solubility [4]: acceptable solubility
